The record followed here is patent publication US9644201B2, “Structured peptide processing” (BICYCLE THERAPEUTICS LIMITED, priority 2009, dated 2017).

In one data set the target is T1, Cathepsin G (Homo sapiens, UniProt P08311).
T1 sequence (P08311 21-244): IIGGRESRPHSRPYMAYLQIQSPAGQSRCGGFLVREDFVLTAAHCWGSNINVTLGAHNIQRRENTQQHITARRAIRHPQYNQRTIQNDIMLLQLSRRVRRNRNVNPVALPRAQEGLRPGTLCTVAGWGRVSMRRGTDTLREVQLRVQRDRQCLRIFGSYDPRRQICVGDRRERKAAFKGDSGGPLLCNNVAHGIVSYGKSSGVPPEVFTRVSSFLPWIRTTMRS
As to the kind of experiment: Peptide conjugate digestion with Cathepsin G. Further: key: +++: substantially intact; −: completely cleaved. Format: in vitro ADME. As to the method:
(§1) For methods, see Example 3 following. The proteolysis was undertaken at 37° C. Cathepsin G and kalikrein reactions were carried out in 10 mM Tris pH 7.4, 150 mM NaCl, 10 mM MgCl2, 1 mM CaCl2, 0.1% BSA, 0.01% Triton X100, 5% DMSO. Chymotrypsin reactions were carried out in 100 mM Tris pH 7.4, 10 mM CaCl2. Pronase and proteinase K reactions were carried out in 100 mM Tris pH 7.4, 0.5% SDS. Subtilisin reactions were carried out in 50 mM KH2PO4 pH 7.5. Trypsin reactions were carried out in 67 mM sodium phosphate pH 7.6. Reaction conditions with serum involve dissolving the peptide in 1×PBS (total volume 24 μl) and 6 μl of human serum added to the reaction.
(§2) Peptides (linear and conjugates) were dissolved in water at a concentration of 1 mg/ml, giving an effective concentration of ˜0.5 mM stock solutions and the concentration determined using amino acid analysis. 2 μl of peptide conjugates ([…]) (˜30 μM in reactions depending on actual molecular weight) were dissolved in reaction buffer (see below) in a total reaction volume of 30 μl, followed by the protease (typically in the range 1, 0.1 and 0.01 μg per reaction), and samples were incubated at 37° C. for 1 hr. 10 μl aliquots were quenched into 10 μl of 1% TFA. Samples were analysed by MALDI-TOF mass spectrometry to identify the fragment peaks and thus determine the site of cleavage. Where there was ambiguity as to the cleavage site samples were analysed by either by MALDI-TOF-TOF (Bruker Ultraflex 3) or by Linear Ion Trap (Thermoscientific Orbitrap XL) to determine accurate masses.

In the next data set the test system is Pronase. Description: Peptide conjugate digestion with Pronase. Further: key: +++: substantially intact; −: completely cleaved. It is filed as in vitro ADME. As to the method:
as §1, §2

The next data set concerns Chymotrypsin. As to the kind of experiment: Peptide conjugate digestion with Chymotrypsin. On Peptide digestion, intactness scale: key: +++: substantially intact; −: completely cleaved. Format: in vitro ADME. As to the method: as §1, §2
The next data set deals with Trypsin. Description: Peptide conjugate digestion with Trypsin. On Peptide digestion, intactness scale: key: +++: substantially intact; −: completely cleaved. It is filed as in vitro ADME. The protocol: as §1, §2
A short description of data set [1]: Resistance to proteases in serum. Format: in vitro ADME, human. To be noted: 37° C. As to the method: as §1
Data set [2] concerns the target T2, biotinylated MDM2 peptide (res 2-125) (Homo sapiens, UniProt Q00987).
T2 construct: biotinylated MDM2 peptide (res 2-125)
Description: Phage ELISA, binding to MDM2. To be noted: 5 mM DTT 20 min, then chymotrypsin 50 μg/ml 2 min. The protocol:
0.6 μg/mL of biotinylated MDM2 peptide (res 2-125) was immobilized on a streptavidin-coated plate (Roche). Plate was blocked with PBSM (but 4% in milk powder) and linear or TBMB-conjugated phage (10^7 TU/well in PBSM in the presence or absence of 5 mM DTT) was incubated on the plate for 50 min at room temperature. Similarly, phage was first reduced in 5 mM DTT for 20 min, treated with chymotrypsin (50 μg/ml in PBS) for 2 min, mixed with PBSM (final concentration) and incubated on the plate for 50 min at room temperature. Phage was detected using an anti-M13-HRP monoclonal antibody (1:5000, Amersham).

A further data set concerns the target MDM2 (res 2-125) (Homo sapiens, UniProt Q00987). As to the kind of experiment: Fluorescence anisotropy titration, affinity for MDM2. It is filed as binding. As to the method:
Titration experiments were run on a Horiba Jobin Yvon fluorimeter equipped with the Hamilton Microlab titrator controlled by laboratory software. […] The slit widths for excitation and emission were 5 nm and 15 nm and the integration time 10 s was used for each measurement. The intrinsic fluorescence of tryptophan in peptides 10, 48 was used to measure their binding affinity for MDM2 (res 2-125). The experiments were performed at 23° C. in PBS, 5 mM DTT. Usually 250 μl of MDM2 (150 μM) was titrated into 1.2 ml of peptide (1 μM). Titration data were analyzed with a standard 1:1 binding model by using the quadratic solution to the equilibrium Kd=[A][B]/[AB]. […] The fitting equation contained an extra term to account for linear drift.
(In general: In fluorescence polarisation assays a small probe gives low polarisation when free and higher when bound to something large.)

The next data set relates to various proteases. Format: in vitro ADME. The protocol:
as §1
(§3) Peptides (linear and conjugates) were dissolved in water at a concentration of 1 mg/ml, giving an effective concentration of ˜0.5 mM stock solutions and the concentration determined using amino acid analysis. […] Samples were analysed by MALDI-TOF mass spectrometry to identify the fragment peaks and thus determine the site of cleavage. Where there was ambiguity as to the cleavage site samples were analysed by either by MALDI-TOF-TOF (Bruker Ultraflex 3) or by Linear Ion Trap (Thermoscientific Orbitrap XL) to determine accurate masses.

The target in a further data set is Proteinase K (Parengyodontium album, UniProt P06873). Description: Peptide conjugate digestion with Proteinase K. Format: in vitro ADME. Also noted: key: +++: substantially intact; −: completely cleaved. The protocol:
as §1, §2

Data set [3] is described as follows: Peptide conjugate digestion with Chymotrypsin. On Peptide digestion, intactness scale: key: +++: substantially intact; −: completely cleaved. Format: in vitro ADME. Conditions: isolated enzyme chymotrypsin, pH 7.4; chymotrypsin 0.1 μg, after 1 hr; read-out: fraction cleaved by chymotrypsin. As to the method:
as §1, §2

The target in another data set is Kalikrein (Homo sapiens, UniProt P03952). As to the kind of experiment: Peptide conjugate digestion with Kalikrein. It is filed as in vitro ADME. Also on record: Peptide digestion, intactness scale: key: +++: substantially intact; −: completely cleaved. As to the method: as §1, §2
The subject of a further data set is Subtilisin. As to the kind of experiment: Peptide conjugate digestion with Subtilisin. Further: key: +++: substantially intact; −: completely cleaved. Format: in vitro ADME. As to the method: as §1, §3
Setting [4] is: Kd, peptide+MDM2, λex=295 nm, 23° C., PBS, 5 mM DTT.
Setting [5] is: affinity for MDM2, synthetic peptide, sub-micromolar, stated range.
Where [6] appears, read: mass spectrometric analysis of cleaved species.

Starred links: 1 amine or outer side, 2 acyl side, 3 side chain; linkers in the order of their positions; H or OH if unused. Positions of bridges follow the written chain, without caps; N, C: chain ends. Residues, ends and D or L forms follow the SMILES beside them. No end group written: not given here. *: point of attachment. TBMB = c1c(C[*:1])cc(C[*:3])cc1C[*:2]; Cam = NC(=O)C*

Sequence of Proteinase K (P06873 106-384): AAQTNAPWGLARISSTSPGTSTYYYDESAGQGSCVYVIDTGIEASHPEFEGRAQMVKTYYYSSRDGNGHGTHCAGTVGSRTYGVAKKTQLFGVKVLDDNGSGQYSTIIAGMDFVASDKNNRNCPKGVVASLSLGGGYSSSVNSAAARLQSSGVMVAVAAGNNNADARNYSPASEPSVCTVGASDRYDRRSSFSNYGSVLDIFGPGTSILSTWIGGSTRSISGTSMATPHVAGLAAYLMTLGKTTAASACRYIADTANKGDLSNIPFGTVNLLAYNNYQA
Sequence of MDM2 (res 2-125) (Q00987 2-125, species assumed): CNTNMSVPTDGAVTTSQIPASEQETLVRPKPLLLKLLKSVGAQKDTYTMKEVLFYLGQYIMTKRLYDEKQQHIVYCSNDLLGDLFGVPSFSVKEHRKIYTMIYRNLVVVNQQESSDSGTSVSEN
Sequence of Kalikrein (P03952 20-638): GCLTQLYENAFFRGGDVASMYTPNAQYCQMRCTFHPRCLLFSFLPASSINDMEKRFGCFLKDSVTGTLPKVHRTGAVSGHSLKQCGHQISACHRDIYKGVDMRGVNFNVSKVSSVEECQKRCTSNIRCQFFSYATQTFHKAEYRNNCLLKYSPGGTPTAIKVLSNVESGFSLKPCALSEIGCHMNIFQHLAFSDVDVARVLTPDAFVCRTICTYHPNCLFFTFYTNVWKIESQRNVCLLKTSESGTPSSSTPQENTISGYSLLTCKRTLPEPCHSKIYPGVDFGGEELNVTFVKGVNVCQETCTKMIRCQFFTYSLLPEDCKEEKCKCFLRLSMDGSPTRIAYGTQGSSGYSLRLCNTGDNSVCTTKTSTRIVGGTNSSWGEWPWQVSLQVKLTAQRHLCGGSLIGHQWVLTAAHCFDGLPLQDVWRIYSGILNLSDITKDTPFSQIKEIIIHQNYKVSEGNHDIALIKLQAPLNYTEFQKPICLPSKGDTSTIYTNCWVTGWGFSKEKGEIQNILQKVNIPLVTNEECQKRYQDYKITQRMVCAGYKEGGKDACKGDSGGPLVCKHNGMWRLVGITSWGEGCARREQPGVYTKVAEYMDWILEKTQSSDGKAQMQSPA
T2 sequence (Q00987 2-125, species assumed): as the sequence (Q00987 2-125, species assumed) above

Turning to `CC(C)C[C@H](NC(=O)[C@H](C)NC(=O)[C@H](CCC(=O)O)NC(=O)[C@H](CC(=O)O)NC(=O)[C@H](C)NC(=O)[C@@H]1CCCN1C(=O)[C@H](CSCC(N)=O)NC(=O)[C@H](CC(N)=O)NC(=O)[C@H](CCCNC(=N)N)NC(=O)[C@H](Cc1ccccc1)NC(=O)[C@H](CCCNC(=N)N)NC(=O)[C@H](CC(=O)O)NC(=O)[C@H](CO)NC(=O)[C@H](CSCC(N)=O)NC(=O)[C@H](C)N)C(=O)N[C@@H](CSCC(N)=O)C(=O)NCC(=O)O` [PK15 linear, AC*SDRFRNC*PADEALC*G] (H-AC(Cam)SDRFRNC(Cam)PADEALC(Cam)G-OH), the “Peptide digestion, intactness scale” value at Cathepsin G (Cathepsin G 0.1, 37° C.) was “−”; at Cathepsin G (Cathepsin G 1 (μg per reaction), 37° C.), “−”; in the data set on Pronase (Pronase 0.01, 37° C.) it was “+++”; in the data set on Pronase (Pronase 10, 37° C.), “−”; with Chymotrypsin (Chymotrypsin 0.01, 37° C.), “+++”; with Chymotrypsin (Chymotrypsin 1, 37° C.), “−”. Further, the “Peptide digestion, intactness scale” value with Chymotrypsin (Chymotrypsin 10, 37° C.) is “−”; in the data set with Trypsin (Trypsin 1, 37° C.), “−”; in the data set on Trypsin (Trypsin 10, 37° C.) it was “−”. In addition, the “time within which digested by the proteases in serum” value in data set [1] was at most 2 h.

In the case of `CC(C)[C@@H]1NC(=O)[C@@H](NC(=O)[C@@H](N)CO)CSCc2cc3cc(c2)CSC[C@H](NC(=O)[C@H]([C@@H](C)O)NC(=O)[C@H](Cc2c[nH]c4ccccc24)NC(=O)CNC(=O)[C@H](Cc2ccccc2)NC(=O)[C@H](CCCNC(=N)N)NC1=O)C(=O)N[C@@H](CC(=O)O)C(=O)N[C@@H](CC(N)=O)C(=O)N[C@@H](CO)C(=O)N[C@@H](Cc1c[nH]c2ccccc12)C(=O)N[C@@H](Cc1c[nH]cn1)C(=O)NCC(=O)N[C@H](C(=O)N[C@@H](CCCCN)C(=O)NCC(=O)O)CSC3` [PEP48] (HELM PEPTIDE1{S.C.V.R.F.G.W.T.C.D.N.S.W.H.G.C.K.G}|CHEM1{[c1c(C[*:1])cc(C[*:3])cc1C[*:2]]}$PEPTIDE1,CHEM1,2:R3-1:R1|PEPTIDE1,CHEM1,9:R3-1:R2|PEPTIDE1,CHEM1,16:R3-1:R3$$$V2.0), in data set [2], the “binding to MDM2 after proteolysis” value is “resistant to proteolysis”. Besides, the Kd is 760 nM on MDM2 (res 2-125) (Kd, peptide+MDM2, λex=280 nm); 567 nM on MDM2 (res 2-125) (setting [4]); 250 to 750 nM on MDM2 (res 2-125) (setting [5]).

In the case of `CC(C)C[C@@H]1NC(=O)[C@H](CCC(=O)O)NC(=O)[C@@H](NC(=O)[C@@H](N)CO)CSCc2cc3cc(c2)CSC[C@H](NC(=O)[C@H](CCCCN)NC(=O)[C@@H]2CCCN2C(=O)[C@H](CC(N)=O)NC(=O)[C@H](Cc2c[nH]c4ccccc24)NC1=O)C(=O)N[C@@H](CCCNC(=N)N)C(=O)N[C@@H](CC(C)C)C(=O)N[C@@H](CO)C(=O)N1CCC[C@H]1C(=O)N[C@@H](Cc1ccccc1)C(=O)N[C@@H](CCC(=O)O)C(=O)N[C@H](C(=O)N[C@@H](CCCCN)C(=O)NCC(=O)O)CSC3` [PEP10] (HELM PEPTIDE1{S.C.E.L.W.N.P.K.C.R.L.S.P.F.E.C.K.G}|CHEM1{[c1c(C[*:1])cc(C[*:3])cc1C[*:2]]}$PEPTIDE1,CHEM1,2:R3-1:R1|PEPTIDE1,CHEM1,9:R3-1:R2|PEPTIDE1,CHEM1,16:R3-1:R3$$$V2.0), the “binding to MDM2 after proteolysis” value in data set [2] is listed as “resistant to proteolysis”. Further, the Kd on MDM2 (res 2-125) (setting [4]) was 267 nM; at MDM2 (res 2-125) (setting [5]), 250 to 750 nM.

With “CG4L1-PK15L1 TBMB: bicyclic CG4L1-PK15L1 (WO 2009/098450) (ALCIFDLGFCSDRFRNCPADE; linker 3-10-17 via TBMB)”, the “factor of resistance, TBMB conjugate versus linear” value with various proteases is 1-100 fold.

Consider `CC(C)C[C@@H]1NC(=O)[C@H](C)NC(=O)[C@H](CCC(=O)O)NC(=O)[C@H](CC(=O)O)NC(=O)[C@H](C)NC(=O)[C@@H]2CCCN2C(=O)[C@@H]2CSCc3cc(cc(c3)CSC[C@@H](C(=O)NCC(=O)O)NC1=O)CSC[C@H](NC(=O)[C@H](C)N)C(=O)N[C@@H](CO)C(=O)N[C@@H](CC(=O)O)C(=O)N[C@@H](CCCNC(=N)N)C(=O)N[C@@H](Cc1ccccc1)C(=O)N[C@@H](CCCNC(=N)N)C(=O)N[C@@H](CC(N)=O)C(=O)N2` [PK15-TBMB] (HELM PEPTIDE1{A.C.S.D.R.F.R.N.C.P.A.D.E.A.L.C.G}|CHEM1{[c1c(C[*:1])cc(C[*:3])cc1C[*:2]]}$PEPTIDE1,CHEM1,2:R3-1:R1|PEPTIDE1,CHEM1,9:R3-1:R2|PEPTIDE1,CHEM1,16:R3-1:R3$$$V2.0), for which the “Peptide digestion, intactness scale” value at Cathepsin G (Cathepsin G 0.01, 37° C.) is recorded as “+++”; on Cathepsin G (Cathepsin G 0.1, 37° C.) it was “+++”; in the data set with Pronase (Pronase 0.01, 37° C.), “+++”; in the data set on Pronase (Pronase 0.1, 37° C.) it was “+++”; on Proteinase K (Proteinase K 0.01, 37° C.), “+++”; on Proteinase K (Proteinase K 0.1, 37° C.), “+++”. Moreover, the “Peptide digestion, intactness scale” value was “+++” on Proteinase K (Proteinase K 1, 37° C.); “+++” in the data set with Chymotrypsin (Chymotrypsin 0.01, 37° C.); “+++” with Chymotrypsin (Chymotrypsin 0.1, 37° C.); “+++” in the data set on Chymotrypsin (Chymotrypsin 1, 37° C.); “+++” with Trypsin (Trypsin 0.01, 37° C.); “−” with Trypsin (Trypsin 10, 37° C.). Moreover, the “Peptide digestion, intactness scale” value on Kalikrein (Kalikrein 0.01, 37° C.) is “+++”; at Kalikrein (Kalikrein 0.1, 37° C.) it was “+++”; at Kalikrein (Kalikrein 1, 37° C.), “+++”; in the data set with Subtilisin (Subtilisin 0.009, 37° C.) it was “+++”; in the data set with Subtilisin (Subtilisin 9, 37° C.) it was “−”. In addition, the cleavage by chymotrypsin result with Chymotrypsin (1 μg chymotrypsin, after 1 hour) is “completely cleaved”. In addition, in the data set with Chymotrypsin (setting [6]), the chymotrypsin cleavage site result is reported as “same cleavage sites”. In data set [3], the metabolised at 1 h, 20 μM was around 50%. Moreover, the trypsin cleavage sites result in the data set on Trypsin (setting [6]) is listed as “same cleavage sites”. Further, the “time to complete cleavage at R7” value in the data set with Trypsin (trypsin 0.1 μg) is given as at most 5 min. Besides, on Kalikrein (attack by kallikrein, by comparing different concentrations of enzyme), the “factor of resistance, TBMB conjugate versus linear” value is “about 100 fold”. Also, the “time for which proteolysis in serum is resisted” value in [1] (later times not yet tested) was “at least 48 hours”.

As usually defined, the Kd is the concentration at which binding is half-saturated.
